Results from patent publication US20040106802A1, “Novel compounds and therapeutic uses thereof” (TORRENT PHARMACEUTICALS LTD., priority 2002, published 2004).
Counter-ions that a name gives are not always drawn.

Molecular target: T1, Porcine DPP-IV (Sus scrofa, UniProt P22411)
T1 construct: purchased Sigma-Aldrich Germany
Test: Assay of DPP-IV enzyme inhibitory activity (spectrophotometric, Gly-Pro-pNA cleavage)
Assay type: biochemical
Conditions: Porcine DPP-IV, Gly-Pro-pNA substrate, 30° C.; mean ± SD of three experiments except compound Nos. 133 & 139; read-out: IC50 (μM) Mean ± SD, inhibitory activity on DPP-IV enzyme activity
Procedure: Assay of DPP-IV Enzyme Inhibitory Activity.
The assay method is a modified method (as described by Welch et al, 1998) based on spectrophotometric determination of the product formed by penultimate proline cleaving activity of the enzyme.
Assay protocol involves incubation of the enzyme dipeptidyl peptidase IV with the test substance at 30° C. for 30 min followed by addition of this reaction mixture to the substrate Gly-Pro-pNA that was equilibrated at 30° C. for 2 min. The enzyme cleaves the substrate at penultimate proline and releases p-nitroanilide, the optical density of which is measured at 385 nm. The formation of p-nitroanilide will be reduced in the presence of inhibitor. […] The activity of molecule is expressed in terms of % inhibition. At least three different concentrations were tried out for each of the test substances. The percentage inhibitions for each of the concentrations were plotted and an IC50 of the test compound was worked out. The enzyme inhibitory activity of different test compounds were compared based on the IC50 values.
The percentage inhibition % I, is calculated using the formula:
% I=[(1−vi/v0)]*100 where vi and v0 are the Vmax values with and without the test substance, respectively.
Substrate solution: 0.5 mM in 45 mM phosphate buffer
Substrate used: Gly-Pro-p-nitroanilide (Source: Sigma-Aldrich Co. Germany)
3.288 mg substrate in 1 ml 45 mM phosphate buffer was prepared as stock solution. 0.25 ml of this stock solution was diluted to 5 ml to get 0.5 mM substrate solution (90 μl to be added in each well). The stock solution of the substrate was used within three days of preparation.
Enzyme solution: Porcine DPP-IV (Sigma-Aldrich Germany) was used throughout the study. 0.4 mU in 80 μl of Tris. HCl buffer was prepared. Fresh solutions were prepared everyday for the assays.
Various concentrations of inhibitor were used: 0.391 μM, 0.781 μM, and 3.125 μM. Solutions of inhibitor were prepared and used on the same day.
280 μl of enzyme solution (0.4-mU/80 μl in Tris HCl buffer) was added to the eppendorf containing 70 μl solution of inhibitor or vehicle and mixed. This reaction mixture was incubated for 30 min at 30° C. The 96 well plate containing substrate solution was thermally equilibrated in the spectrophotometer for 2 min at 30° C. Later 100 μl of the enzyme-inhibitor pre-incubation solution was added to respective wells in a 96 well plate. Each concentration of the inhibitor was tested in triplicates.
The rate of change in UV absorbance (in presence of various concentrations of the inhibitor) was measured at 385 nm, with respect to wells containing only 0.5 mM substrate in 45 mM phosphate buffer as blank at every 10 min for 2 hours after adding enzyme-inhibitor mixture to wells containing substrate solution.

T1 sequence (P22411 whole entry): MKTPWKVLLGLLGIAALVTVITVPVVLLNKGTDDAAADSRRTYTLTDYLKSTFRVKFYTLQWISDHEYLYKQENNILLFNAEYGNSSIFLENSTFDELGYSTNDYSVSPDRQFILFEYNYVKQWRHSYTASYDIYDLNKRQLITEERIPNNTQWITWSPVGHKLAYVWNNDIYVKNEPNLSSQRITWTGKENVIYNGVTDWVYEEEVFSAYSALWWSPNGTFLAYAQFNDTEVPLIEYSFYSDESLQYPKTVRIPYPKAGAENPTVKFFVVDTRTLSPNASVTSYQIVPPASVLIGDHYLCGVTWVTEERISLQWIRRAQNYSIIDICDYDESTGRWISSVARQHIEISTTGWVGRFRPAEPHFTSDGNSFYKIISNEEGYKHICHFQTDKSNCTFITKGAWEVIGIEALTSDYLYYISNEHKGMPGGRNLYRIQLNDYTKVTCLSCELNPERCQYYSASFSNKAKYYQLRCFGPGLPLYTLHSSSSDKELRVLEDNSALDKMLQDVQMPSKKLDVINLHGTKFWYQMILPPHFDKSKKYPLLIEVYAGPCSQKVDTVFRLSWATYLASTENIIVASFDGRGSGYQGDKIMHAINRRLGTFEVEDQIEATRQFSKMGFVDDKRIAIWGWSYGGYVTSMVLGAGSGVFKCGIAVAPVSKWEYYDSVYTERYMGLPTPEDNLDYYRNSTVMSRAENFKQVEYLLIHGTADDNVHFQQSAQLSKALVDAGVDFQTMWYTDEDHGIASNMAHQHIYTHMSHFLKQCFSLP

SMILES	IC50 [µM]
CC(C)(C)C1CCC(N(N)CC(=O)N2CSCC2C#N)CC1 (stereo not shown) [Compound No. 49, 3-[1-Oxo-2-(1-(4-tertbutylcyclohexyl)hydrazino)]ethyl-4-cyanothiazolidine trifluoroacetate]	1.04 ± 0.25
N#CC1CSCN1CC(=O)NN(CC(=O)N1CCCC1C#N)C1CCCCC1 (stereo not shown) [Compound No. 50]	60.1 ± 5.5
CC(C)N1CCC(N(N)CC(=O)N2CSCC2C#N)CC1 (stereo not shown) [Compound No. 51, 3-[1-Oxo-2-(1-isopropyl-4-piperidinyl) hydrazino)]ethyl-4-cyano thiazolidine trifluoroacetate]	3.5 ± 0.06
CC1CCC(N(CC(=O)N2CSCC2C#N)NC2CCN(Cc3cccnc3)CC2)CC1 (stereo not shown) [Compound No. 53, 3-[1-Oxo-2-[1-(4-methylcyclohexyl)-2-(1-(3-pyridinylmethyl)-4-piperidinyl)]hydrazino]ethyl-4-cyanothiazolidine]	16.7 ± 2.07
CC1CCC(N(CC(=O)N2CSCC2C#N)NC2CCN(C(C)C)CC2)CC1 (stereo not shown) [Compound No. 54, 3-[1-Oxo-2-[1-(4-methylcyclohexyl)-2-(1-isopropyl-4-piperidinyl)]hydrazino]ethyl-4-cyanothiazolidine]	6.43 ± 0.15
Cc1ccc(S(=O)(=O)N2CCC(N(N)CC(=O)N3CSCC3C#N)CC2)cc1 (stereo not shown) [Compound No. 55, 3-[1-Oxo-2-(1-(1-(4-methylphenylsulphonyl)-4-piperidinyl)-hydrazino)]ethyl-4-cyanothiazolidine trifluoroacetate]	2.7 ± 0.16
Cc1ccc(S(=O)(=O)N2CCC(NN(C)CC(=O)N3CSCC3C#N)CC2)cc1 (stereo not shown) [Compound No. 56, 3-[1-Oxo-2-[1-methyl-2-(1-(4-methylphenylsulphonyl)-piperidin-4-yl)]hydrazino]ethyl-4-cyanothiazolidine trifluoroacetate]	44.2 ± 1.36
N#CC1CSCN1C(=O)CN(N)C1CCN(Cc2cccnc2)CC1 (stereo not shown) [Compound No. 57, 3-[1-Oxo-2-(1-(1-(3-pyridinemethyl)-4-piperidinyl) hydrazino)]ethyl-4-cyanothiazolidine tris trifluoroacetate]	4.77 ± 0.41
CN(CC(=O)N1CSCC1C#N)NC1CCN(Cc2ccc(C#N)cc2)CC1 (stereo not shown) [Compound No. 58, 3-[1-Oxo-2-[1-methyl-2-(1-(4-cyanophenylmethyl)piperidin-4-yl)]hydrazino]ethyl-4-cyanothiazolidine bis trifluoroacetate]	17.1 ± 0.3
CN(CC(=O)N1CSCC1C#N)NC1CCN(Cc2cccnc2)CC1 (stereo not shown) [Compound No. 59, 3-[1-Oxo-2-[1-methyl-2-(1-(3-pyridinylmethyl)-piperidin-4-yl)]hydrazino]ethyl-4-cyanothiazolidine tris trifluoroacetate]	9.27 ± 0.42
CCCC1CCC(N(N)CC(=O)N2CSCC2C#N)CC1 (stereo not shown) [Compound No. 60, 3-[1-Oxo-2-(1-(4-npropylcyclohexyl) hydrazino)]ethyl-4-cyanothiazolidine trifluoro acetate]	0.69 ± 0.03
N#CC1CSCN1C(=O)CN(N)C1CCN(Cc2ccc([N+](=O)[O-])cc2)CC1 (stereo not shown) [Compound No. 61, 3-[1-Oxo-2-(1-(1-(4-nitrophenylmethyl)-piperidin-4-yl) hydrazino]ethyl-4-cyanothiazolidine trifluoroacetate]	0.7 ± 0.03
N#CC1CSCN1C(=O)CN(N)C1CCN(S(=O)(=O)c2ccc(Cl)cc2)CC1 (stereo not shown) [Compound No. 62, 3-[1-Oxo-2-[1-(1-(4-chlorophenylsulphonyl)-piperidin-4-yl)]hydrazino]ethyl-4-cyanothiazolidine trifluoroacetate]	1.54 ± 0.34
N#CC1CSCN1C(=O)CN(N)C12CCC(CC1)C2 (stereo not shown) [Compound No. 63, 3-[1-Oxo-2-(1-(1-norcamphoranyl) hydrazino)]ethyl-4-cyanothiazolidine trifluoroacetate]	0.73 ± 0.02
CCCC1CCC(N(N)CC(=O)N2CSCC2C#N)CC1 (stereo not shown) [Compound No. 64, 3-[1-Oxo-2-(1-(4-npropylcyclohexyl)hydrazino)]ethyl-4-cyanothiazolidine trifluoroacetate]	0.34 ± 0.07
CC1CCC(C(=O)N2CCC(N(N)CC(=O)N3CSCC3C#N)CC2)CC1 (stereo not shown) [Compound No. 65, 3-[1-Oxo-2-[1-(1-(4-methylcyclohexylcarbonyl)-piperidin-4-yl)]hydrazino]ethyl-4-cyanothiazolidine trifluoroacetate]	0.87 ± 0.06

SMILES	IC50 [µM]
CC(=O)N1CCC(N(N)CC(=O)N2CSCC2C#N)CC1 (stereo not shown) [Compound No. 66, 3-[1-Oxo-2-(1-(1-acetyl)-piperidin-4-yl)hydrazino]ethyl-4-cyanothiazolidine trifluoroacetate]	1.53 ± 0.01
CC1CCC(N(N)CC(=O)N2CS(=O)(=O)CC2C#N)CC1 (stereo not shown) [Compound No. 67, 1,1-Dioxo-3-[1-oxo-2-(1-(4-methylcyclohexyl)hydrazino)]ethyl-4-cyanothiazolidine trifluoroacetate]	72.5 ± 7.05
CC1CCC(NN(C)CC(=O)N2CSCC2C#N)CC1 (stereo not shown) [Compound No. 68, 3-[1-Oxo-2-(1-methyl-2-(4-methylcyclohexyl) hydrazino)]ethyl-4-cyanothiazolidine]	45.3 ± 3.03
CC1CCC(NN(C)CC(=O)N2CSCC2C#N)CC1 (stereo not shown) [Compound No. 69, 3-[1-Oxo-2-(1-methyl-2-(4-methylcyclohexyl) hydrazino)]ethyl-4-cyanothiazolidine]	69 ± 10.1
N#CC1CSCN1C(=O)CN(N)C1CCN(C(=O)c2cccc(Cl)c2Cl)CC1 (stereo not shown) [Compound No. 70, 3-[1-Oxo-2-(1-(1-(2,3-dichlorophenylcarbonyl)-piperidin-4-yl) hydrazino)]ethyl-4-cyanothiazolidine trifluoroacetate]	1.79 ± 0.12
CN(CC(=O)N1CSCC1C#N)NC1CCN(S(=O)(=O)c2ccc(Cl)cc2)CC1 (stereo not shown) [Compound No. 71, 3-[1-Oxo-2-[1-methyl-2-(1-(4-chlorophenylsulphonyl)-piperidin-4-yl)]-hydrazino]ethyl-4-cyanothiazolidine]	86.2 ± 5.3
N#CC1CSCN1C(=O)CN(N)C1CCNCC1 (stereo not shown) [Compound No. 72, 3-[1-Oxo-2-(1-(4-piperidinyl) hydrazino)]ethyl-4-cyanothiazolidine bis trifluoroacetate]	12.1 ± 0.13
N#CC1CCCN1C(=O)CN(N)C1CCN(S(=O)(=O)c2ccc(Cl)cc2)CC1 (stereo not shown) [Compound No. 73, [1-Oxo-2-(1-(1-(4-chlorophenylsulphonyl)-piperidin-4-yl)-hydrazino)]ethyl-2-cyanopyrrolidine trifluoroacetate]	48.9 ± 1.81
CC(=O)NN(CC(=O)N1CSCC1C#N)C1CCC(C)CC1 (stereo not shown) [Compound No. 74, 3-[1-Oxo-2-(1-(4-methylcyclohexyl)-2-acetyl) hydrazino]ethyl-4-cyanothiazolidine]	97.7 ± 13.1
N#CC1CSCN1C(=O)CN(N)C12CC3CC(CC(C3)C1)C2 (stereo not shown) [Compound No. 75, 3-[1-Oxo-2-(1-(1-adamantanyl) hydrazino)]ethyl-4-cyanothiazolidine trifluoroacetate]	0.31 ± 0.05
CC(C)(C)C(=O)N1CCC(N(N)CC(=O)N2CSCC2C#N)CC1 (stereo not shown) [Compound No. 76, 3-[1-Oxo-2-(1-(1-(tert-butylcarbonyl)-piperidin-4-yl) hydrazino)]ethyl-4-cyanothiazolidine trifluoroacetate]	4.15 ± 0.29
N#CC1CSCN1C(=O)CN(N)C1CCN(c2ccc(C(F)(F)F)cn2)CC1 (stereo not shown) [Compound No. 77, 3-[1-Oxo-2-(1-(1-(5-trifluoromethyl-2-pyridinyl)-piperidin-4-yl) hydrazino)]ethyl-4-cyano thiazolidine bis trifluoroacetate]	0.67 ± 0.06
CS(=O)(=O)NC1CCC(N(N)CC(=O)N2CSCC2C#N)CC1 (stereo not shown) [Compound No. 78, 3-[1-Oxo-2-(1-(1-methanesulphonylamino-4-cyclohexyl) hydrazino)]ethyl-4-cyanothiazolidine trifluoroacetate]	0.25 ± 0.02
CC1CC(N(N)CC(=O)N2CSCC2C#N)CC(C)(C)C1 (stereo not shown) [Compound No. 79, 3-[1-Oxo-2-(1-(3,3,5-trimethylcyclohexyl)-hydrazino)]ethyl-4-cyanothiazolidine trifluoroacetate]	0.92 ± 0.03
CCNN(CC(=O)N1CSCC1C#N)C(C)C (stereo not shown) [Compound No. 80, 3-[1-Oxo-2-(1-isopropyl-2-ethyl)-hydrazino]-ethyl-4-cyanothiazolidine trifluoroacetate]	2.27 ± 0.19
